Experimental data as given in the kinase profiling compilation of Christmann-Franck et al. (2016).

Legend:
Test in all cases: KINOMEscan competition binding
Settings in all cases: compound 10.0 µM
AURKA (human) = AURKA (human) (UniProt O14965)
BMPR1A (human) = BMPR1A (human) (UniProt P36894)
CAMKK2 (human) = CAMKK2 (human) (UniProt Q96RR4)
CDK5 (human) = CDK5 (human) (UniProt Q00535)
CDKL2 (human) = CDKL2 (human) (UniProt Q92772)
CHEK2 (human) = CHEK2 (human) (UniProt O96017)
CLK4 (human) = CLK4 (human) (UniProt Q9HAZ1)
CSK (human) = CSK (human) (UniProt P41240)
EPHB3 (human) = EPHB3 (human) (UniProt P54753)
FGFR2 (human) = FGFR2 (human) (UniProt P21802)
FGFR4 (human) = FGFR4 (human) (UniProt P22455)
INSR (human) = INSR (human) (UniProt P06213)
IRAK3 (human) = IRAK3 (human) (UniProt Q9Y616)
KDR (human) = KDR (human) (UniProt P35968)
[1] = system: KIT (human), P10721 [V559D]
MAP2K4 (human) = MAP2K4 (human) (UniProt P45985)
MAP3K12 (human) = MAP3K12 (human) (UniProt Q12852)
MAP3K9 (human) = MAP3K9 (human) (UniProt P80192)
MAP4K3 (human) = MAP4K3 (human) (UniProt Q8IVH8)
Sequence of MAP4K3 (human) (Q8IVH8 whole entry, looked up): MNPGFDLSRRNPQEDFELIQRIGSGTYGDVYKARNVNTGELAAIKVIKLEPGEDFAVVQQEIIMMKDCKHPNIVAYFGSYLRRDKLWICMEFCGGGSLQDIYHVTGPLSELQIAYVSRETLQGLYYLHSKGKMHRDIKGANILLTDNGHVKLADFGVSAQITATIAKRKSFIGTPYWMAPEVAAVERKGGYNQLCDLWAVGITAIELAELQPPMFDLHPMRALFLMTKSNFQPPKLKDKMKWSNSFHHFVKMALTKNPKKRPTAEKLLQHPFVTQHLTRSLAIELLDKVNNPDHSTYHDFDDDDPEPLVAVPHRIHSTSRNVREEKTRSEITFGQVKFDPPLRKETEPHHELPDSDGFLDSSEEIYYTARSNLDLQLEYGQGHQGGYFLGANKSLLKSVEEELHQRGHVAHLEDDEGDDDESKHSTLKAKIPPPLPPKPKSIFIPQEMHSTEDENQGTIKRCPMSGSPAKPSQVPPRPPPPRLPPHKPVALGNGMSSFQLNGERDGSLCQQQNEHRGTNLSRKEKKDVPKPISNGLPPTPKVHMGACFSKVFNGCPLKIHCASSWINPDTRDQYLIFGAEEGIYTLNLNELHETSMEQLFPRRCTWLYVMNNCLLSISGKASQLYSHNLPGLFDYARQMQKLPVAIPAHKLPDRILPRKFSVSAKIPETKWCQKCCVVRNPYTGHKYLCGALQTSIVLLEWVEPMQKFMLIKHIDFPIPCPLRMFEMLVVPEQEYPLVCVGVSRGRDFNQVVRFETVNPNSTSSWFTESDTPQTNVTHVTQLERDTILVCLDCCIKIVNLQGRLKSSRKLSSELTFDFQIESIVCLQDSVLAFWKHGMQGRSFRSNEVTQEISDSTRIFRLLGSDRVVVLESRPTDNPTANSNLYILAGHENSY

MAP4K4 (human) = MAP4K4 (human) (UniProt O95819)
Sequence of MAP4K4 (human) (O95819 whole entry, looked up): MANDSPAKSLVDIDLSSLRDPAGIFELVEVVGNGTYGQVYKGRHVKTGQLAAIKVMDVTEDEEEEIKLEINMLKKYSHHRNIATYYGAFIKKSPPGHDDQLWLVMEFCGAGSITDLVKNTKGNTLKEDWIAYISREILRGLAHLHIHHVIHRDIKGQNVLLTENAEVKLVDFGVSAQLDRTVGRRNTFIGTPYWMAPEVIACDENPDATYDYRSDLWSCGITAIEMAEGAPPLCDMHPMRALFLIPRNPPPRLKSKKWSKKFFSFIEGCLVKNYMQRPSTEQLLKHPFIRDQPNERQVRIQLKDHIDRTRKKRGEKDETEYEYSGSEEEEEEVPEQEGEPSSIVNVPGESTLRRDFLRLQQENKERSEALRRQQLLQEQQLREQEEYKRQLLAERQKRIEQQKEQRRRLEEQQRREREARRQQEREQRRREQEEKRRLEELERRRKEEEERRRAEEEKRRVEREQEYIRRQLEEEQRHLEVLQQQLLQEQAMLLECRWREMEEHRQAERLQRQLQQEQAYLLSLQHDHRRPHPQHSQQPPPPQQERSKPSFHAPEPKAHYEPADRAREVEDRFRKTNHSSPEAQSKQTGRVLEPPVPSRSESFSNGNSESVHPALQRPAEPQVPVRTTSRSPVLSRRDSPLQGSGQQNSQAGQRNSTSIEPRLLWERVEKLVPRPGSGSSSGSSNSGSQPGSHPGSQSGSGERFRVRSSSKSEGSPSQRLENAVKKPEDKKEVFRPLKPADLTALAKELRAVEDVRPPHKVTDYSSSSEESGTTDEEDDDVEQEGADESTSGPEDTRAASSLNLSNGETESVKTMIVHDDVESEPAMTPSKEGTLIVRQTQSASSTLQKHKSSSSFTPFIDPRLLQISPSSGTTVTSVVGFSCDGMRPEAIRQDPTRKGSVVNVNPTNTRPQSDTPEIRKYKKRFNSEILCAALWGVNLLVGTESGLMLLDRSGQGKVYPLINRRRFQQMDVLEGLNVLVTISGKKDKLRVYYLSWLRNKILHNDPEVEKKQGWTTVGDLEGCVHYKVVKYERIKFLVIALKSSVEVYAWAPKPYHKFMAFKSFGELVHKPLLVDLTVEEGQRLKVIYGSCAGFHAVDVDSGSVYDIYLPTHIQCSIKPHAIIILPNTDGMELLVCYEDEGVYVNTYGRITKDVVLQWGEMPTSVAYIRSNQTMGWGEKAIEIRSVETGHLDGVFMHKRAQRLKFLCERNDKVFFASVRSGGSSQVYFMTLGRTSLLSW

MAPK6 (human) = MAPK6 (human) (UniProt Q16659)
MYLK4 (human) = MYLK4 (human) (UniProt Q86YV6)
Sequence of MYLK4 (human) (Q86YV6 whole entry, looked up): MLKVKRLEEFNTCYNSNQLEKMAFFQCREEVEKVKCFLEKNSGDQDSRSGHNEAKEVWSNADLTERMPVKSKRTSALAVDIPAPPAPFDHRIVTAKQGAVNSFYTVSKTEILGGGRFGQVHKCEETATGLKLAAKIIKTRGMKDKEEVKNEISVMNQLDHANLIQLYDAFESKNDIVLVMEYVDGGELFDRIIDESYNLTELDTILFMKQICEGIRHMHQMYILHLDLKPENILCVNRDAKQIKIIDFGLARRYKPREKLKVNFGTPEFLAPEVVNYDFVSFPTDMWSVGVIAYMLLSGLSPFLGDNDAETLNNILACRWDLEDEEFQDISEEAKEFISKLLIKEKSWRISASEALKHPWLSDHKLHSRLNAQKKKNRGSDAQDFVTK

MYO3B (human) = MYO3B (human) (UniProt Q8WXR4)
NTRK3 (human) = NTRK3 (human) (UniProt Q16288)
PAK1 (human) = PAK1 (human) (UniProt Q13153)
Sequence of PAK1 (human) (Q13153 whole entry, looked up): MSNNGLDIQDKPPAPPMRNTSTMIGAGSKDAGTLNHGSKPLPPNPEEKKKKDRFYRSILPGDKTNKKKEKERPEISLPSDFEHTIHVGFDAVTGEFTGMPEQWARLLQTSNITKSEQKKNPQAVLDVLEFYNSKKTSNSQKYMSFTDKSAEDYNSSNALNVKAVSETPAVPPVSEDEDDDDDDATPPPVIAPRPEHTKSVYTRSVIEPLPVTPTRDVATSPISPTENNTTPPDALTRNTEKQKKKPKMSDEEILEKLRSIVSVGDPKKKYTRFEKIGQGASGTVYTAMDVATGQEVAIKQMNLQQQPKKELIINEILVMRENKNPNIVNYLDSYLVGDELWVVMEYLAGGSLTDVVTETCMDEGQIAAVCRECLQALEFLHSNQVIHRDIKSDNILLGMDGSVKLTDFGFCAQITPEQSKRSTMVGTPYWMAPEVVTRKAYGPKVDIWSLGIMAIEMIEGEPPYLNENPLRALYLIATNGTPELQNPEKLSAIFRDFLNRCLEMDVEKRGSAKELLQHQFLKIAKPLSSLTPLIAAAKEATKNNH

PAK2 (human) = PAK2 (human) (UniProt Q13177)
PDGFRA (human) = PDGFRA (human) (UniProt P16234)
PIP5K1A (human) = PIP5K1A (human) (UniProt Q99755)
PRKCQ (human) = PRKCQ (human) (UniProt Q04759)
RIPK4 (human) = RIPK4 (human) (UniProt P57078)
ROCK2 (human) = ROCK2 (human) (UniProt O75116)
RPS6KA2 KD2 (human) = RPS6KA2 KD2 (human) (UniProt Q15349)
RPS6KA3 KD1 (human) = RPS6KA3 KD1 (human) (UniProt P51812)
RPS6KA4 KD2 (human) = RPS6KA4 KD2 (human) (UniProt O75676)
Sequence of RPS6KA4 KD2 (human) (O75676 whole entry, looked up): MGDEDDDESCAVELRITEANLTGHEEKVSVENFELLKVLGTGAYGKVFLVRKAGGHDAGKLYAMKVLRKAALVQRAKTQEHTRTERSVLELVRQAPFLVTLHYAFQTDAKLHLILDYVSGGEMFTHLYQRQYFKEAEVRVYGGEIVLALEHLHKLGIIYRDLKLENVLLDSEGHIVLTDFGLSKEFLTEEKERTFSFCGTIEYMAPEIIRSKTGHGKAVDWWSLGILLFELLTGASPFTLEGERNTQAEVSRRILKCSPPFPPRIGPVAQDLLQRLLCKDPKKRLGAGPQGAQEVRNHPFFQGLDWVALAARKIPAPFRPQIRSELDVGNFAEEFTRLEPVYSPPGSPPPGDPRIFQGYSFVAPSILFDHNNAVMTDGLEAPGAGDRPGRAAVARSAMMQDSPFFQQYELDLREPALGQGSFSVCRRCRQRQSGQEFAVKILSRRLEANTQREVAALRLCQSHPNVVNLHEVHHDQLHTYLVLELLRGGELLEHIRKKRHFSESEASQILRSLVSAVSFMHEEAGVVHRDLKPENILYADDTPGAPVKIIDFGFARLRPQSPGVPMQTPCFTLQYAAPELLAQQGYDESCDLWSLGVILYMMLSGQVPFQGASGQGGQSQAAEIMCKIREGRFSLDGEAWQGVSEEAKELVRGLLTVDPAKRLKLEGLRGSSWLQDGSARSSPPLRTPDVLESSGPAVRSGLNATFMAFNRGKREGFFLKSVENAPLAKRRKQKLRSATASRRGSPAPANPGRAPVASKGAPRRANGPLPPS

RPS6KA5 KD2 (human) = RPS6KA5 KD2 (human) (UniProt O75582)
Sequence of RPS6KA5 KD2 (human) (O75582 whole entry, looked up): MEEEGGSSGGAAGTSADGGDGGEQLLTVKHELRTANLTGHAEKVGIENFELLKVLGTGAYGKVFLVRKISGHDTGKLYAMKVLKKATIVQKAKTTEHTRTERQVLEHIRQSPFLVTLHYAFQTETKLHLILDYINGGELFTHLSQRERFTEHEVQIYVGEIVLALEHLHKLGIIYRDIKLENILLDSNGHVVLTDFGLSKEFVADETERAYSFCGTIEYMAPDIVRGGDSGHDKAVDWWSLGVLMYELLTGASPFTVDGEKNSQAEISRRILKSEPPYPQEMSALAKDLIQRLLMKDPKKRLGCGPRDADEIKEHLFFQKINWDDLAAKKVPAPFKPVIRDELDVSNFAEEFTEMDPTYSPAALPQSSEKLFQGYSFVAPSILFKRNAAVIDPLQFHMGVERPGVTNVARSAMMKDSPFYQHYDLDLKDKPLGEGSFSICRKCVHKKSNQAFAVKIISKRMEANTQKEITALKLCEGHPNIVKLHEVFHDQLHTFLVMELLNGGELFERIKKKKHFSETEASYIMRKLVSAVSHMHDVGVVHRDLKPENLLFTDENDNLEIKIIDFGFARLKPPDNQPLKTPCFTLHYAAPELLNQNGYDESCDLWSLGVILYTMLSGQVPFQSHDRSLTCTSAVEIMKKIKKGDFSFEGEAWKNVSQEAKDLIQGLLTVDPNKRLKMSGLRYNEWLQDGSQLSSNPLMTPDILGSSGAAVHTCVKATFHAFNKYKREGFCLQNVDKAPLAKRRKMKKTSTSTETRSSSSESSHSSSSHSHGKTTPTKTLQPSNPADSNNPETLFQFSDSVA

STK10 (human) = STK10 (human) (UniProt O94804)
STK32B (human) = STK32B (human) (UniProt Q9NY57)
TESK1 (human) = TESK1 (human) (UniProt Q15569)
[2] = target: TYK2 JH2 pseudokinase (human) (UniProt P29597)
CSNK1G2 (human) = CSNK1G2 (human) (UniProt P78368)

Sequence of CDK5 (human) (Q00535 whole entry, looked up): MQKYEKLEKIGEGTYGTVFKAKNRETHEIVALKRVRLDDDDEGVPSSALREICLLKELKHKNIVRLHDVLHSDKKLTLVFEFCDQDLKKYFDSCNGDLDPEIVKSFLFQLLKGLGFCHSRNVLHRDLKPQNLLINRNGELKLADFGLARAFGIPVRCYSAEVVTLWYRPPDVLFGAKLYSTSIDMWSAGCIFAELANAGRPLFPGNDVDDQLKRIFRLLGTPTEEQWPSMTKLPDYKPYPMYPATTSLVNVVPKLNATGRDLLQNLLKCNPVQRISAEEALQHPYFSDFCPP

SMILES | kinase still bound, per cent of control (AURKA (human)) | kinase still bound, per cent of control (BMPR1A (human)) | kinase still bound, per cent of control (CAMKK2 (human)) | kinase still bound, per cent of control (CDK5 (human)) | kinase still bound, per cent of control (CDKL2 (human)) | kinase still bound, per cent of control (CHEK2 (human)) | kinase still bound, per cent of control (CLK4 (human)) | kinase still bound, per cent of control (CSK (human)) | kinase still bound, per cent of control (EPHB3 (human)) | kinase still bound, per cent of control (FGFR2 (human)) | kinase still bound, per cent of control (FGFR4 (human)) | kinase still bound, per cent of control (INSR (human)) | kinase still bound, per cent of control (IRAK3 (human)) | kinase still bound, per cent of control (KDR (human)) | kinase still bound, per cent of control [1] | kinase still bound, per cent of control (MAP2K4 (human)) | kinase still bound, per cent of control (MAP3K12 (human)) | kinase still bound, per cent of control (MAP3K9 (human)) | kinase still bound, per cent of control (MAP4K3 (human)) | kinase still bound, per cent of control (MAP4K4 (human)) | other results
CCOc1cc2ncc(C#N)c(Nc3ccc(OCc4ccccn4)c(Cl)c3)c2cc1NC(=O)/C=C/CN(C)C | 87% | 89% | 89% | 100% | 100% | 79% | 100% | 13% | 100% | 96% | 100% | 46% | 85% | 94% | 100% | 72% | 36% | 84% | 2.1% | 6.2% | kinase still bound, per cent of control (MAPK6 (human)): 100%; kinase still bound, per cent of control (MYLK4 (human)): 86%; kinase still bound, per cent of control (MYO3B (human)): 100%; kinase still bound, per cent of control (NTRK3 (human)): 78%; kinase still bound, per cent of control (PAK1 (human)): 16%; kinase still bound, per cent of control (PAK2 (human)): 34%; kinase still bound, per cent of control (PDGFRA (human)): 100%; kinase still bound, per cent of control (PIP5K1A (human)): 100%; kinase still bound, per cent of control (PRKCQ (human)): 100%; kinase still bound, per cent of control (RIPK4 (human)): 77%; kinase still bound, per cent of control (ROCK2 (human)): 86%; kinase still bound, per cent of control (RPS6KA2 KD2 (human)): 100%; kinase still bound, per cent of control (RPS6KA3 KD1 (human)): 89%; kinase still bound, per cent of control (RPS6KA4 KD2 (human)): 94%; kinase still bound, per cent of control (RPS6KA5 KD2 (human)): 77%; kinase still bound, per cent of control (STK10 (human)): 0%; kinase still bound, per cent of control (STK32B (human)): 73%; kinase still bound, per cent of control (TESK1 (human)): 100%; kinase still bound, per cent of control [2]: 99%
O=C(NOC[C@H](O)CO)c1ccc(F)c(F)c1Nc1ccc(I)cc1F | 100% | 100% | 100% | 100% | 87% | 86% | 89% | 100% | 89% | 100% | 54% | 92% | 100% | 84% | 74% | 83% | 78% | 95% | 87% | 69% | kinase still bound, per cent of control (CSNK1G2 (human)): 95%; kinase still bound, per cent of control (MAPK6 (human)): 83%; kinase still bound, per cent of control (MYLK4 (human)): 100%; kinase still bound, per cent of control (MYO3B (human)): 99%; kinase still bound, per cent of control (NTRK3 (human)): 93%; kinase still bound, per cent of control (PAK1 (human)): 100%; kinase still bound, per cent of control (PAK2 (human)): 93%; kinase still bound, per cent of control (PDGFRA (human)): 96%; kinase still bound, per cent of control (PIP5K1A (human)): 91%; kinase still bound, per cent of control (PRKCQ (human)): 100%; kinase still bound, per cent of control (RIPK4 (human)): 100%; kinase still bound, per cent of control (ROCK2 (human)): 100%; kinase still bound, per cent of control (RPS6KA2 KD2 (human)): 92%; kinase still bound, per cent of control (RPS6KA3 KD1 (human)): 100%; kinase still bound, per cent of control (RPS6KA4 KD2 (human)): 100%; kinase still bound, per cent of control (RPS6KA5 KD2 (human)): 100%; kinase still bound, per cent of control (TESK1 (human)): 98%; kinase still bound, per cent of control [2]: 100%
Cc1ccc2nc(NCCN)c3ncc(C)n3c2c1 | 100% | 32% | 93% | 100% | 82% | 97% | 53% | 100% | 100% | 100% | 100% | 99% | 72% | 100% | 23% | 100% | 84% | 100% | 80% | 100% | kinase still bound, per cent of control (CSNK1G2 (human)): 97%; kinase still bound, per cent of control (MAPK6 (human)): 27%; kinase still bound, per cent of control (MYLK4 (human)): 8.8%; kinase still bound, per cent of control (MYO3B (human)): 100%; kinase still bound, per cent of control (NTRK3 (human)): 100%; kinase still bound, per cent of control (PAK1 (human)): 100%; kinase still bound, per cent of control (PAK2 (human)): 94%; kinase still bound, per cent of control (PIP5K1A (human)): 92%; kinase still bound, per cent of control (PRKCQ (human)): 99%; kinase still bound, per cent of control (RIPK4 (human)): 100%; kinase still bound, per cent of control (ROCK2 (human)): 100%; kinase still bound, per cent of control (RPS6KA2 KD2 (human)): 97%; kinase still bound, per cent of control (RPS6KA3 KD1 (human)): 100%; kinase still bound, per cent of control (RPS6KA4 KD2 (human)): 15%; kinase still bound, per cent of control (RPS6KA5 KD2 (human)): 85%; kinase still bound, per cent of control (STK10 (human)): 100%; kinase still bound, per cent of control (STK32B (human)): 100%; kinase still bound, per cent of control (TESK1 (human)): 79%; kinase still bound, per cent of control [2]: 15%
